# Results: US20260158050A1, “USE OF EIDD-1931 OR DERIVATIVE THEREOF IN TREATMENT OF ENTEROVIRUS INFECTION” (ACADEMY OF MILITARY MEDICAL SCIENCES, priority 2022, published 2026)
# Tests used:
# CV-A6 TW-2007-00141 = test: CPE protection, CV-A6 TW-2007-00141 strain; assay type: cell-based; details: CV-A6 TW-2007-00141, RD cells
# EV-A71 [1] = test: time series experiment, intracellular viral RNA load in RD cells; assay type: cell-based; details: 10 μM, 0.01 MOI (FIG. 5)
# Experimental: The specific steps were as follows: RD cells were seeded in a 12-well plate at a density of about 4.0×10^5 per well and cultured at 37° C. and 5% CO2 for 24 hours. Subsequently, the test compound EIDD-1931, the positive compound NITD008 and the EV-A71 virus were diluted to the corresponding concentrations with the cell maintenance medium, and then the pre-diluted compound or virus was added at the time point as shown in A in FIG. 5. After 30 hours of continuous culture, the cell supernatant was discarded, the intracellular RNA was extracted, and the intracellular viral RNA load was detected by qRT-PCR. The intracellular RNA extraction method and qRT-PCR system and reaction conditions were the same as described above.
# [2] = test system: CHIKV, VEEV, RSV, HCV, NV, IAV, IBV, EBOV, MERS-CoV, SARS-CoV-2; details: background art; cited from earlier work
# EV-A71 [3] = test: infectious virus particle formation in supernatant (TCID50 detection); assay type: cell-based; details: supernatant of RD cells, TCID50 (FIG. 3 A and C)
# EV-A71 AH08/06 = test: CPE protection, EV-A71 AH08/06 strain; assay type: cell-based; details: EV-A71 AH08/06, RD cells
# EV-A71 VP1 protein = test: inhibition of EV-A71 VP1 protein synthesis (immunofluorescence, Western blot); assay type: cell-based; details: Vero cells IF, RD cells Western blot (FIG. 4)
# Experimental: Vero cells were seeded in a 96-well black plate at a density of about 1.0×10^4 per well and cultured at 37° C. and 5% CO2 for 24 hours. Then, EV-A71 virus was diluted to the corresponding concentration with cell maintenance medium and added into the 96-well plate (MOI=1). At the same time, the test compounds EIDD-1931 and EIDD-2801, which had been diluted in advance with cell maintenance medium, were added at the final concentrations of 10 μM, 3 μM and 100 μM, 30 μM, respectively. Then the cells were cultured for 16 hours, the liquid was discarded, 100 μL of 4% formaldehyde was added to each well for fixation for 30 minutes, the fixative was discarded, PBS buffer was added, and the antibody was incubated and labeled for imaging.
# RD cells were seeded in a 12-well plate at a density of about 1.0×10^5 per well and cultured at 37° C. and 5% CO2 for 24 hours. Then, EV-A71 virus was diluted to the corresponding concentration with cell maintenance medium and added to the 12-well plate so that the virus content in each well was 0.1 MOI. […] After the protein concentration was determined with BCA protein quantification kit, the corresponding volume of 5×SDS Loading Buffer was added and boiled at 100° C. for 10 minutes to fully denature the protein. […]
# various enteroviruses = test: broad-spectrum anti-enteroviral activity (CPE), summary over viruses; assay type: cell-based; details: all viruses of Table 1; read-out: EC50 values against various enteroviruses
# Experimental: In this experiment, the experiment on protection of EIDD-1931 and EIDD-2801 against CPE caused by EV-A71 virus AH08/06 strain, EV-D68 virus STL-2014-12 strain, CV-A6 TW-2007-00141 strain, and CV-A16 190-D1 strain were all performed by using RD cells. The experiments on protection of EIDD-1931 and EIDD-2801 against CPE caused by CV-B3 Nancy strain were performed by using Vero cells. The specific experimental methods were the same as those in Example 1.
# MERS-CoV or SARS-CoV = details: mice, cited from earlier work
Compound,EC50 (CV-A6 TW-2007-00141) [µM],inhibition on the adsorption and entry of the virus (EV-A71 [1]),stage of virus infection at which the antiviral effect is exerted (EV-A71 [1]),"inhibitory effects against CHIKV, VEEV, RSV, HCV, NV, IAV, IBV, EBOV, MERS-CoV and SARS-CoV-2 [2]",inhibition of production of infectious viral particles (EV-A71 [3]),EC50 (EV-A71 AH08/06) [µM],inhibition of production of EV-A71 VP1 protein (EV-A71 VP1 protein),EC50 (various enteroviruses) [µM],lung damage caused by MERS-CoV or SARS-CoV infections (MERS-CoV or SARS-CoV; preventive use),degree of lung damage and weight loss (MERS-CoV or SARS-CoV; therapeutic use within 12 hours or 24 hours after infection)
O=c1nc(NO)ccn1[C@@H]1O[C@H](CO)[C@@H](O)[C@H]1O [EIDD-1931],17.7 ± 0.38,no obvious inhibition,viral replication stage,good inhibitory effects,inhibited,2.79 ± 0.89,dose-dependently inhibit,< 20,,
CC(C)C(=O)OC[C@H]1O[C@@H](n2cc/c(=N\O)[nH]c2=O)[C@H](O)[C@@H]1O [EIDD-2801],> 100,,,,inhibited,30.3 ± 0.55,dose-dependently inhibit,,prevent lung damage,significantly reduce
